≈ marks a conversion by molar mass, not a printed value.
Assays:
Type in all cases: functional
Staphylococcus aureus [1] = assay: Antibacterial activity against Staphylococcus aureus ATCC 25923 after 12 to 18 hrs by two fold dilution method
Escherichia coli [2] = assay: Antibacterial activity against Escherichia coli ATCC 25922 after 12 to 18 hrs by two fold dilution method
Pseudomonas aeruginosa [3] = assay: Antibacterial activity against clinical colistin-resistant Pseudomonas aeruginosa by microdilution method
Pseudomonas aeruginosa [4] = assay: Antibacterial activity against Pseudomonas aeruginosa after 12 to 18 hrs by MTT assay
Klebsiella pneumoniae = assay: Antibacterial activity against Klebsiella pneumoniae after 12 to 18 hrs by MTT assay
Staphylococcus aureus [5] = assay: Antibacterial activity against methicillin-resistant Staphylococcus aureus after 24 hrs by MTT assay
Escherichia coli [6] = assay: Antibacterial activity against Escherichia coli ATCC 25922 after 24 hrs by MTT assay; details: ATCC 25922, 24 h

| MIC (Staphylococcus aureus [1]) [µg/mL] | MIC (Escherichia coli [2]) [µg/mL] | SMILES | also measured |
| --- | --- | --- | --- |
| > 32 | > 32 | CCCCCCCCO[C@@H]1[C@@H](O[C@H]2O[C@H](CN)[C@@H](O)[C@H](O)[C@H]2N)[C@H](N)C[C@H](N)[C@H]1O[C@H]1O[C@H](CO)[C@@H](O)[C@H](N)[C@H]1O (stereo in doubt) |  |
| > 32 | > 32 | CCCCCCOC[C@@H]1O[C@@H](O[C@@H]2[C@@H](O)[C@H](O[C@@H]3O[C@@H](CN)[C@H](O)[C@@H](O)[C@@H]3N)[C@@H](N)C[C@H]2N)[C@@H](O)[C@H](O)[C@H]1O (stereo in doubt) |  |
|  |  | NC[C@H]1O[C@H](O[C@H]2[C@H](O)[C@@H](OCCCCc3ccc4ccccc4c3)[C@H](N)C[C@@H]2N)[C@H](N)[C@@H](OCCCCc2ccc3ccccc3c2)[C@@H]1O | MIC (Pseudomonas aeruginosa [3]): 2 µg/mL (≈ 2.91 µM) |
|  |  | NC[C@H]1O[C@H](O[C@H]2[C@H](O)[C@@H](OCCCCCCCCCc3ccc4ccccc4c3)[C@H](N)C[C@@H]2N)[C@H](N)[C@@H](OCCCCCCCCCc2ccc3ccccc3c2)[C@@H]1O | MIC (Pseudomonas aeruginosa [3]): 2 µg/mL (≈ 2.42 µM) |
|  |  | CCCCCCCO[C@@H]1[C@@H](OCCCCCCC)[C@H](N)C[C@H](N)[C@H]1O[C@H]1O[C@H](CN)[C@@H](OCCCCCCC)C[C@H]1N | MIC (Pseudomonas aeruginosa [4]): 4 µg/mL (≈ 6.66 µM); MIC (Klebsiella pneumoniae): 4 µg/mL (≈ 6.66 µM); MIC (Staphylococcus aureus [5]): 1 µg/mL (≈ 1.66 µM); MIC (Escherichia coli [6]): 4 µg/mL (≈ 6.66 µM) |
| > 32 | > 32 | CCCCCCCCO[C@@H]1[C@@H](O)[C@@H](O[C@@H]2[C@@H](O)[C@H](O[C@H]3O[C@H](CN)[C@@H](O)[C@H](O)[C@H]3N)[C@@H](N)C[C@H]2N)O[C@H](CO)[C@H]1O |  |
| > 32 | > 32 | CCCCCCCCO[C@@H]1[C@@H](O[C@H]2O[C@H](CN)[C@@H](O)[C@H](O)[C@H]2N)[C@H](N)C[C@H](N)[C@H]1O[C@H]1O[C@H](CO)[C@@H](O)[C@H](O)[C@H]1O (stereo in doubt) |  |
| > 32 | > 32 | CCCCCCCCOC[C@@H]1O[C@@H](O[C@@H]2[C@@H](O)[C@H](O[C@@H]3O[C@@H](CN)[C@H](O)[C@@H](O)[C@@H]3N)[C@@H](N)C[C@H]2N)[C@@H](O)[C@H](O)[C@H]1O (stereo in doubt) |  |
| > 32 | > 32 | CCCCCCCCO[C@@H]1[C@@H](O)[C@H](O)[C@H](O[C@H]2[C@H](O)[C@@H](O[C@@H]3O[C@@H](CN)[C@H](O)[C@@H](O)[C@@H]3N)[C@H](N)C[C@@H]2N)O[C@H]1CO (single isomer, unassigned) |  |
| > 32 | > 32 | CCCCCCCCO[C@@H]1[C@@H](N)[C@H](O)[C@H](O[C@H]2[C@H](O)[C@@H](O[C@@H]3O[C@@H](CN)[C@H](O)[C@@H](O)[C@@H]3N)[C@H](N)C[C@@H]2N)O[C@H]1CO (single isomer, unassigned) |  |
| > 32 | > 32 | CCCCCCCCO[C@H]1[C@@H](O[C@@H]2[C@@H](O)[C@H](O[C@H]3O[C@H](CN)[C@@H](O)[C@H](O)[C@H]3N)[C@@H](N)C[C@H]2N)O[C@H](CO)[C@@H](O)[C@@H]1O |  |
|  |  | NC[C@H]1O[C@H](O[C@H]2[C@H](O)[C@@H](OCCCc3ccc4ccccc4c3)[C@H](N)C[C@@H]2N)[C@H](N)[C@@H](OCCCc2ccc3ccccc3c2)[C@@H]1O | MIC (Pseudomonas aeruginosa [3]): 2 µg/mL (≈ 3.04 µM) |

— ChEMBL document CHEMBL3797195, “Bacterial lipid membranes as promising targets to fight antimicrobial resistance, molecular foundations and illustration through the renewal of aminoglycoside antibiotics and emergence of amphiphilic aminoglycosides” (2016)
